Test results taken from patent publication US20240342111A1, “ISOMER-SPECIFIC NEUROPROTECTIVE EFFECT OF NATURAL RESERVATROL” (priority 2021, published 2024).

Legend:
PARP1 = test: Auto-PARylation of PARP1 after siRNA knockdown of TyrRS; format: cell-based, rat; conditions: 15 minutes
tau = test: Immunostaining of phospho-tau (pSer404-tau); format: cell-based, rat; conditions: 25 μM, 16 hours
Rat cortical neurons = test: MPP+ toxicity (mitochondrial inhibition), cell viability; format: cell-based
H3 = test: Immunoblot for histone H3 acetylation (Ac-K9-H3, Ac-K56-H3); format: cell-based, rat; conditions: 15 minutes
GSK3β = test: Immunoblot for inhibitory GSK3β phosphorylation; format: cell-based, rat; conditions: 16 hours
XRCC1 = test: Immunoblot for DNA repair protein XRCC1; format: cell-based, rat; conditions: 5-50 μM, 4 hours
Source text: Ac-K56-H3 is a marker of genomic stability, see Driscoll, R., Hudson, A. & Jackson, S. P. Yeast Rtt109 promotes genome stability by acetylating histone H3 on lysine 56. Science 315, 649-652, doi:10.1126/science.1135862 (2007), and DNA damage, see Tjeertes, J. V., Miller, K. M. & Jackson, S. P. Screen for DNA-damage-responsive histone modifications identifies H3K9Ac and H3K56Ac in human cells. EMBO J 28, 1878-1889, doi:10.1038/emboj.2009.119 (2009), and inhibition of PARP1 causes the downregulation of RAD51, see Hegan, D. C. et al. Inhibition of poly(ADP-ribose) polymerase down-regulates BRCA1 and RAD51 in a pathway mediated by E2F4 and p130. […] The western blot images of the protein levels of HPF1 was quantified using ImageJ.
Cultured neurons (DIV 9-10) were washed once with cold 1×PBS and lysed in cell lysis buffer (20 mM Tris-HCl (pH 7.5), 150 mM NaCl, 1 mM Na2EDTA, 1 mM EGTA, 1% Triton, 2.5 mM sodium pyrophosphate, 1 mM beta-glycerophosphate, 1 mM Na3VO4, 1 μg/ml leupeptin supplemented with protease inhibitor). […] Lysates were quantified using Bio-Rad Protein Assay, and an equal amount of protein was loaded onto a 4 to 12% gradient gel (NuPAGE-Invitrogen). […] Quantification for the western blots was done using ImageJ (Version 1.53c).

[1] = Spectral analysis (absorption spectrum) of cis- and trans-RSV conformation in solution; format: physicochemical; conditions: for peak absorption: lower concentrations (≤10 μM), range 250-400 nm
Protocol: Nature 519, 370-373, doi:10.1038/nature14028 (2015). […] Mol Nutr Food Res 63, e1800715, doi:10.1002/mnfr.201800715 (2019). […] Commercially available cis- and trans-RSV were dissolved in ethanol to generate the stock solutions. […] The dilutions were done in the dark and samples were protected from light. […] Low dose trans-RSV evokes a paradoxical shift in equilibrium towards the cis conformation in solution.
Each stock was diluted 1000× in DMSO to prepare different stocks to obtain the final working solutions and micromolar concentrations to obtain the absorption spectrum. The control solution was prepared using ethanol and DMSO (0.1% ethanol). Absorption was measured using Spectramax 300R at room temperature. Stock solutions were stored at −20° C., and the working solutions were prepared fresh and protected from light during the preparation.

TyrRS = biological target: T1, TyrRS (Rattus norvegicus, UniProt Q4KM49); test: Immunostaining of neuronal TyrRS, RSV alone or in combination with Aβ; format: cell-based; conditions: 16 hours; for TyrRS protein levels: alone, 50μ; for Aβ-mediated downregulation of TyrRS: co-treatment 50μ with Aβ 50 nM
T1 construct: Primary cortical neuron cultures were obtained from E18 Sprague Dawley rats' cortices; endogenous in cells; host or cells: rat primary cortical neurons (E18 Sprague Dawley)
T1 sequence (Q4KM49 1-528): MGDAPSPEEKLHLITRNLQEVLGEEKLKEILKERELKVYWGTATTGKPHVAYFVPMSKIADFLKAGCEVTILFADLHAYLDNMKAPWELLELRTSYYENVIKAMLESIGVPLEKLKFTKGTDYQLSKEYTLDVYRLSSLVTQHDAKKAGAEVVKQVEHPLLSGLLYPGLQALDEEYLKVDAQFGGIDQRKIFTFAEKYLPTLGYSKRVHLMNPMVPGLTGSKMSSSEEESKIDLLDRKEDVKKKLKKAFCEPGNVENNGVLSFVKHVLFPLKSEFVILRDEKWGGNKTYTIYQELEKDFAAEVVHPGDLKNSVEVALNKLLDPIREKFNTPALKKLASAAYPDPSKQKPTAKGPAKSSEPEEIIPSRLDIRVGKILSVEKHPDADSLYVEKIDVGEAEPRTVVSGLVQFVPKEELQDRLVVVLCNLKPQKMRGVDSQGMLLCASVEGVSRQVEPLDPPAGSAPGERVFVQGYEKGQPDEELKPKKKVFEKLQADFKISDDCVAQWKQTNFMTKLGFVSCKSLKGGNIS

γ-H2AX foci = test: Immunostaining of DNA damage marker pSer139-H2AX (γ-H2AX) foci; format: cell-based, rat; conditions: 24 hours; for Aβ-mediated accumulation of γ-H2AX foci: 50 μM in combination with Aβ 50 nM; for γ-H2AX foci: alone, 50 μM

Row | Compound | auto-PARylation of PARP1 after knockdown of TyrRS (PARP1; cis-RSV 25 μM) | phosphorylation level of tau (p-tau, pSer404) (tau) | protection against MPP+ toxicity (cell viability) (Rat cortical neurons; 10 μM MPP, pre-treatment 50 μM for 16 hours, viability after 48 hours) | acetylation level of H3 lysine 9 (Ac-K9-H3) (H3) | GSK3β activity via inhibitory phosphorylation (pSer9) (GSK3β) | XRCC1 protein levels (XRCC1) | specific absorption peak [1] [nm] | conformation in solution ([1]; cis-RSV, 5-50 μM) | peak absorption [1] [nm] | TyrRS protein levels (TyrRS) | Aβ-mediated downregulation of TyrRS (TyrRS) | Aβ-mediated accumulation of γ-H2AX foci (γ-H2AX foci) | γ-H2AX foci (γ-H2AX foci) | auto-PARylation of PARP1 after knockdown of TyrRS (PARP1; trans-RSV 5 μM) | neurotoxicity by itself (Rat cortical neurons; high dose 50 μM, no toxin) | acetylation level of H3 lysine 56 (Ac-K56-H3) (H3) | conformation in solution ([1]; concentrations ≤10 μM, in DMSO, protected from light) | conformation in solution ([1]; high dose (≥25 μM))
1 | Oc1ccc(/C=C\c2cc(O)cc(O)c2)cc1 [cis-RSV, cis-resveratrol] | blunted after knockdown of TyrRS | significantly downregulated the phosphorylation level of tau (p-tau) | protects against MPP toxicity | upregulated the acetylation levels of H3 lysine 9 (Ac-K9-H3) | inhibited GSK3β through the upregulation of the inhibitory phosphorylation (pSer9) | upregulated them | 295 | retains its conformation across the different doses | 295 | upregulation of the TyrRS protein levels | protected against Aβ-mediated downregulation of TyrRS | rescued A β-mediated accumulation of γ-H2AX foci | downregulated the accumulation of γ-H2AX foci | – | – | – | – | –
2 | Oc1ccc(/C=C/c2cc(O)cc(O)c2)cc1 [trans-RSV, trans-resveratrol] | – | significantly upregulated the level of p-tau | – | downregulated the lysine 9 and 56 acetylation levels of H3 | activated GSK3β by downregulating the levels of pSer9 | downregulated the protein levels | 330 | – | 295 | downregulation | exacerbated the downregulation of TyrRS | exacerbated the accumulation of γ-H2AX foci | caused the accumulation of γ-H2AX foci | blunted after knockdown of TyrRS | neurotoxic | downregulated the lysine 9 and 56 acetylation levels of H3 | exists majorly in cis-RSV conformation | retains its trans conformation
